The record followed here is patent publication US11986471B2, “Compounds and methods of use” (Tango Therapeutics, Inc., priority 2018, dated 2024).

Common to all, as to format: biochemical
The target of test [1] is T1, PRMT5 (Homo sapiens, UniProt O14744).
T1 construct: purchased Viva (custom protein)
In words: PRMT5 IC50 assay in the presence of SAM as cofactor. An excerpt:
(§1) Table 1a indicates IC50 values (μM) against PRMT5 for exemplary compounds in the presence of SAM as cofactor, with no cofactor and with MTA as cofactor, respectively (columns 3-5). […] The Ki values can be calculated from the IC50 values as described in the Examples section. As detailed in the Examples section, for the assay performed in the presence of SAM, IC50=Ki×1.5 (Ki=IC50/1.5). For the assay performed in the presence of MTA, IC50=Ki×13.5 (Ki=IC50/13.5). Column 6 indicates the ratio between the Ki of compounds in the presence of SAM and the Ki of compounds in the presence of MTA

The target of test [2] is T1, PRMT5. Briefly: PRMT5 IC50 assay with no cofactor.
Description: as §1

In test [3] the target is T1, PRMT5. Briefly: PRMT5 IC50 assay in the presence of MTA as cofactor. To be noted: for IC50: PRMT5, MTA as cofactor.
Description: as §1

[4] abbreviates: ratio between the Ki in the presence of SAM and the Ki in the presence of MTA.
Setting [5] is: ratio between Ki in the presence of SAM and Ki in the presence of MTA.

T1 sequence (O14744 whole entry): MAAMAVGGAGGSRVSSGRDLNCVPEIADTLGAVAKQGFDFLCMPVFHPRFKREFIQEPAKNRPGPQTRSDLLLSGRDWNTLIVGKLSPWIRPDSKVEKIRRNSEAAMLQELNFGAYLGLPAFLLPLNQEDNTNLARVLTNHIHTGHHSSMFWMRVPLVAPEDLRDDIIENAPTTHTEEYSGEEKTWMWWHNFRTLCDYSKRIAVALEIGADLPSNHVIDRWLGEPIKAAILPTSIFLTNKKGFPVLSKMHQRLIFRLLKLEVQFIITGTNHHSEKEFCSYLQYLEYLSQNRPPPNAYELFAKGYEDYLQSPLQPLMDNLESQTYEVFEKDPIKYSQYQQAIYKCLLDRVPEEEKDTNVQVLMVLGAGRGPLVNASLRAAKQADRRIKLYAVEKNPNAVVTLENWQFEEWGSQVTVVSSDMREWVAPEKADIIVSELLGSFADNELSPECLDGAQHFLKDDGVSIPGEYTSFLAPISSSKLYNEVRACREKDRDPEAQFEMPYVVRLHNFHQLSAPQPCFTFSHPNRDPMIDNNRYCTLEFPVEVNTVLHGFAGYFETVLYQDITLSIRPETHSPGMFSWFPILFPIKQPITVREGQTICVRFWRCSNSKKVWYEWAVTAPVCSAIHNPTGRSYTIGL
T1 sequence (Q9BQA1 whole entry partner): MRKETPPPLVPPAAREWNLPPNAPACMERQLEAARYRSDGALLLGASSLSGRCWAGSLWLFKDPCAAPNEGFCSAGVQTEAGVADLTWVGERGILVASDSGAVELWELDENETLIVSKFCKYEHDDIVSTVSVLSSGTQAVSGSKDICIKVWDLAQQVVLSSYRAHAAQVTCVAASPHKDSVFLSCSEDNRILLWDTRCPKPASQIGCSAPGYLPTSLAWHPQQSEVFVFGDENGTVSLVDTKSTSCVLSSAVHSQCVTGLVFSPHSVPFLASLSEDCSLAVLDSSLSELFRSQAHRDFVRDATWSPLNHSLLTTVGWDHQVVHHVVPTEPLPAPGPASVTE

As for `Cc1c(OCc2cnco2)ccc2c1CCN(C[C@@H](O)CNC(=O)c1cc(N[C@H]3C[C@H](C(=O)N4CCC4)C3)ncn1)C2` [Compound 519, N-[(2S)-2-hydroxy-3-{5-methyl-6-[(1,3-oxazol-5-yl)methoxy]-1,2,3,4-tetrahydroisoquinolin-2-yl}propyl]-6-{[(1r,3r)-3-(azetidine-1-carbonyl)cyclobutyl]amino}pyrimidine-4-carboxamide], the results for the IC50 on PRMT5 [1], against PRMT5 [2] and on PRMT5 [3] were 500 to 5000 nM, not below 5000 nM and 500 to 5000 nM, respectively. Further, the “SAM/MTA Ratio” value at PRMT5 [3] (setting [4]) was “A (a Ki ratio greater than or equal to 10 fold between the Ki in the presence of SAM and the Ki in the presence of MTA)”.
Consider `COCCN(C)c1cc(NC2CCN(C(C)=O)CC2)cc(C(=O)NC[C@@H](O)CN2CCc3cc(OCc4ocnc4C)ccc3C2)c1` (single isomer, unassigned) [Compound 648], for which the values for the concentration for half-maximal inhibition (IC50) on PRMT5 [1], at PRMT5 [2] (read-out: No Co-factor IC50) and on PRMT5 [3] were 50 to 500 nM, not below 5000 nM and 50 to 500 nM, respectively. At PRMT5 [3] (setting [5]), the “SAM/MTA Ratio” value was “A (a Ki ratio greater than or equal to 10 fold between the Ki in the presence of SAM and the Ki in the presence of MTA)”.
For `CC(=O)N1CCC(Nc2cc(C(=O)NC[C@@H](O)CN3CCc4c(C)c(OCc5ocnc5C)cc(F)c4C3)cc(N3CCCCC3)n2)CC1` [Compound 652], the values for the concentration for half-maximal inhibition (IC50) at PRMT5 [1], at PRMT5 [2] (read-out: No Co-factor IC50) and at PRMT5 [3] were 50 to 500 nM, 500 to 5000 nM and 50 to 500 nM, respectively. Also, at PRMT5 [3] (setting [5]), the “SAM/MTA Ratio” value was “A (a Ki ratio greater than or equal to 10 fold between the Ki in the presence of SAM and the Ki in the presence of MTA)”.
Turning to `O=C(NC[C@H](O)CN1CCc2cc(OCc3cnco3)ccc2C1)c1cc(NC2CCC2)ncn1` [Compound 538, (S)-6-(cyclobutylamino)-N-(2-hydroxy-3-(6-(oxazol-5-ylmethoxy)-3,4-dihydroisoquinolin-2(1H)-yl)propyl)pyrimidine-4-carboxamide], the concentration for half-maximal inhibition (IC50) on PRMT5 [1] is 500 to 5000 nM; on PRMT5 [2], not below 5000 nM; on PRMT5 [3] it was 50 to 500 nM. For the same molecule, the “SAM/MTA Ratio” value at PRMT5 [3] (setting [4]) was “A (a Ki ratio greater than or equal to 10 fold between the Ki in the presence of SAM and the Ki in the presence of MTA)”.
`CC(=O)N1CCC(Nc2cc(C(=O)NC[C@H](O)CN3CCc4c(C)c(OCc5ocnc5C)cc(F)c4C3)cc(N3CCCCC3)n2)CC1` [Compound 653]: the results for the IC50 on PRMT5 [1], on PRMT5 [2] (read-out: No Co-factor IC50) and on PRMT5 [3] were 500 to 5000 nM, not below 5000 nM and 500 to 5000 nM, respectively. On PRMT5 [3] (setting [5]), the “SAM/MTA Ratio” value is “A (a Ki ratio greater than or equal to 10 fold between the Ki in the presence of SAM and the Ki in the presence of MTA)”.
As to `Cn1nccc1COc1ccc2c(c1)CCN(C[C@@H](O)CNC(=O)c1cc(NC3CCC3)ccn1)C2` [Compound 542, (S)-4-(cyclobutylamino)-N-(2-hydroxy-3-(6-((1-methyl-1H-pyrazol-5-yl)methoxy)-3N-dihydroisoquinolin-2(1H)-yl)propyl)picolinamide], the half-inhibitory concentration (IC50) at PRMT5 [1] is 500 to 5000 nM; against PRMT5 [2] it was not below 5000 nM; at PRMT5 [3], 50 to 500 nM. On PRMT5 [3] (setting [4]), the “SAM/MTA Ratio” value is “A (a Ki ratio greater than or equal to 10 fold between the Ki in the presence of SAM and the Ki in the presence of MTA)”.
`Cc1c(OCc2cnco2)ccc2c1CCN(C[C@@H](O)CNC(=O)c1ccnc(NC34CC(C3)C4)c1)C2` [Compound 514, (S)-2-(bicyclo[1.1.1]pentan-1-ylamino)-N-(2-hydroxy-3-(5-methyl-6-(oxazol-5-ylmethoxy)-3N-dihydroisoquinolin-2(1H)-yl)propyl)isonicotinamide]: the IC50 at PRMT5 [1] is 500 to 5000 nM; against PRMT5 [2], not below 5000 nM; at PRMT5 [3] it was 500 to 5000 nM. Besides, the “SAM/MTA Ratio” value on PRMT5 [3] (setting [4]) was “A (a Ki ratio greater than or equal to 10 fold between the Ki in the presence of SAM and the Ki in the presence of MTA)”.
Take `CO[C@H]1CC[C@@H](Nc2cc(C(=O)NC[C@H](O)CN3CCc4c(ccc(OCc5cnco5)c4C)C3)ncn2)CC1` [Compound 541, N-[(2S)-2-hydroxy-3-{5-methyl-6-[(1,3-oxazol-5-yl)methoxy]-1,2,3,4-tetrahydroisoquinolin-2-yl}propyl]-6-{[(1s,4s)-4-methoxycyclohexyl]amino}pyrimidine-4-carboxamide]: the figures for the IC50 at PRMT5 [1], against PRMT5 [2] and on PRMT5 [3] were 500 to 5000 nM, not below 5000 nM and 50 to 500 nM, respectively. In addition, the “SAM/MTA Ratio” value on PRMT5 [3] (setting [4]) is “A (a Ki ratio greater than or equal to 10 fold between the Ki in the presence of SAM and the Ki in the presence of MTA)”.
Take `O=C(NC[C@H](O)CN1CCc2cc(OCc3cn[nH]c3)cc(F)c2C1)c1ccnc(NC2CCC2)c1` [Compound 596, 2-(cyclobutylamino)-N-[(2S)-3-[8-fluoro-6-(1H-pyrazol-4-ylmethoxy)-3,4-dihydro-1H-isoquinolin-2-yl]-2-hydroxy-propyl]pyridine-4-carboxamide]: the IC50 at PRMT5 [1] is 500 to 5000 nM; against PRMT5 [2], 500 to 5000 nM; on PRMT5 [3] it was 50 to 500 nM. In addition, at PRMT5 [3] (setting [4]), the “SAM/MTA Ratio” value was “A (a Ki ratio greater than or equal to 10 fold between the Ki in the presence of SAM and the Ki in the presence of MTA)”.
In the case of `CC(=O)N1[C@@H]2CC[C@H]1C[C@@H](Nc1cc(C(=O)NC[C@H](O)CN3CCc4cc(OCc5ocnc5C)ccc4C3)ncn1)C2` [Compound 630, 6-{[(1R,3R,5S)-8-acetyl-8-azabicyclo[3.2.1]octan-3-yl]amino}-N-[(2S)-2-hydroxy-3-{6-[(4-methyl-1,3-oxazol-5-yl)methoxy]-1,2,3,4-tetrahydroisoquinolin-2-yl}propyl]pyrimidine-4-carboxamide], the concentration for half-maximal inhibition (IC50) is 500 to 5000 nM at PRMT5 [1], not below 5000 nM at PRMT5 [2] (read-out: No Co-factor IC50) and 50 to 500 nM on PRMT5 [3]. Also, the “SAM/MTA Ratio” value on PRMT5 [3] (setting [5]) is “A (a Ki ratio greater than or equal to 10 fold between the Ki in the presence of SAM and the Ki in the presence of MTA)”.
In the case of `Cc1c(OCc2cnco2)ccc2c1CCN(C[C@@H](O)CNC(=O)c1ccnc(N[C@H]3C[C@H](CO)C3)c1)C2` [Compound 537, N—((S)-2-hydroxy-3-(5-methyl-6-(oxazol-5-ylmethoxy)-3N-dihydroisoquinolin-2(1H)-yl)propyl)-2-(((1r,3S)-3-(hydroxymethyl)cyclobutyl)amino)isonicotinamide], the IC50 at PRMT5 [1] is 500 to 5000 nM; against PRMT5 [2], not below 5000 nM; on PRMT5 [3], 50 to 500 nM. On PRMT5 [3] (setting [4]), the “SAM/MTA Ratio” value is “A (a Ki ratio greater than or equal to 10 fold between the Ki in the presence of SAM and the Ki in the presence of MTA)”.
On to `CCC(=O)N1CC(Nc2cc(C(=O)NC[C@H](O)CN3CCc4c(ccc(OCc5cnco5)c4C)C3)ncn2)C1` [Compound 567, N-[(2S)-2-hydroxy-3-{5-methyl-6-[(1,3-oxazol-5-yl)methoxy]-1,2,3,4-tetrahydroisoquinolin-2-yl}propyl]-6-[(1-propanoylazetidin-3-yl)amino]pyrimidine-4-carboxamide], for which the IC50 on PRMT5 [1] is 50 to 500 nM; on PRMT5 [2], not below 5000 nM; at PRMT5 [3], 50 to 500 nM. Further, the “SAM/MTA Ratio” value on PRMT5 [3] (setting [4]) is “A (a Ki ratio greater than or equal to 10 fold between the Ki in the presence of SAM and the Ki in the presence of MTA)”.
With `CC(=O)N1CCC(Nc2cc(C(=O)NCC(O)CN3CCc4nc(OCc5ocnc5C)ccc4C3)cc(N3CCCCC3)n2)CC1` (stereo not drawn) [Compound 654], the IC50 lay in the range of 500 to 5000 nM on PRMT5 [2] (read-out: No Co-factor IC50) and 50 to 500 nM on PRMT5 [3].
`CC(=O)N1CC(Nc2cc(C(=O)NCC(O)CN3CCc4cc(OCc5ocnc5C)ccc4C3)nc(N3CCCCC3)c2)C1` (stereo not drawn) [Compound 580]: on PRMT5 [2], the IC50 lay within 500 to 5000 nM.

A word on the IC50: it is the concentration that inhibits the measured activity by half.
